Key:
Format in all cases: cell-based, human
[1] = test system: hPDE5 mutants fused to GFP in HCT116 cells; assay: Vardenafil dose response of combination mutants, MFI by FACS; details: for MFI / SR: 24 hours
Procedure: (§1) Mean fluorescence intensity (MFI) was measured by FACS. Parental HCT116 and cells expressing OT-hPDE5N-019 comprising hPDE5 wildtype construct were also included as controls. […] The destabilizing mutation coefficient ratio was calculated as the fold change in GFP intensity in the hPDE5 mutant constructs compared to the hPDE5 wildtype construct (OT-hPDE5N-019) in the absence of the ligand. Destabilizing mutation co-efficient ratios less than 1 are desirable. Stabilization ratios greater than 1 are desired in DDs.

[2] = test system: hPDE5 mutants fused to GFP in HCT116 cells; assay: Comparative analysis of hPDE5 ligands: stabilization ratios at the highest concentrations
Procedure: (§2) Mean fluorescence intensity (MFI) was measured by FACS. Parental HCT116 and cells expressing OT-hPDE5N-019 wildtype construct were also included as controls. […] The destabilizing mutation coefficient ratio was calculated as the fold change in GFP intensity in the hPDE5 mutant constructs compared to the hPDE5 wildtype construct (OT-hPDE5N-019) in the absence of the ligand. Destabilizing mutation coefficient ratios less than 1 are desirable. Stabilization ratios greater than 1 are desired in DDs.
as §1
(§3) The response of hPDE5 combination mutants to increasing doses of Tadalafil was tested. HCT116 cells transduced with hPDE5 constructs were treated with Tadalafil for 24 hours at doses ranging from 0.14 to 100 μM. Mean fluorescence intensity (MFI) was measured by FACS. Parental HCT116 and cells expressing OT-hPDE5N-019 comprising hPDE5 wildtype construct were also included as controls. The response of the combination mutants to Tadalafil was compared to the response of the single mutant construct OT-hPDE5N-020. The stabilization ratio (SR) was calculated as the fold change in GFP intensity in Tadalafil treated samples compared to treatment with DMSO (i.e. in the absence of ligand) with the same construct. The destabilizing mutation coefficient was calculated as the fold change in GFP intensity in the hPDE5 mutant constructs compared to the hPDE5 wildtype construct (OT-hPDE5N-0019) in the absence of the ligand. Destabilizing mutation coefficient less than 1 are desirable. Stabilization ratios greater than 1 are desired in DDs.

[3] = test system: hPDE5 truncation mutants (R732L) fused to AcGFP in HCT 116 cells; assay: Western blot for AcGFP of hPDE5 truncation mutants with Vardenafil; details: 10 μM Vardenafil, 24 hours
Procedure: Protein expression analysis of the truncation mutants was performed in parallel via western blot. […] GAPDH levels were also analyzed to ensure even protein loading.

[4] = test system: hPDE5 mutants fused to GFP in HCT116 cells; assay: Tadalafil dose response of combination mutants, MFI by FACS
Procedure: as §3

[5] = test system: hPDE5 mutants fused to GFP in HCT116 cells; assay: Sildenafil dose response of combination mutants, MFI by FACS; details: for MFI / SR: 24 hours
Procedure: as §2

[6] = test system: hPDE5 mutants fused to GFP in HCT116 cells; assay: Vardenafil dose response 48 hours, fold change in GFP MFI over DMSO; details: 0.1 and 0.3 micro molar
Procedure: Combination mutants were generated as described in Example 9. […] Mean fluorescence intensity (MFI) of GFP was measured by FACS.

[7] = test system: hPDE5 mutants fused to GFP in HCT116 cells; assay: Response to Sildenafil (5 or 0.5 μM) over time, MFI by FACS
Procedure: Mean fluorescence intensity (MFI) was measured by FACS. […] The destabilizing mutation coefficient was calculated as the fold change in GFP intensity in the hPDE5 mutant constructs compared to the hPDE5 wildtype construct (OT-hPDE5N-019) in the absence of the ligand. Destabilizing mutation coefficient less than 1 are desirable. Stabilization ratios greater than 1 are desired in DDs. The results and stabilization ratios for time course experiments with 5 or 0.5 μM are presented in Table 30 and Table 31 respectively.

Work on “OT-hPDE5N-020: construct consisting of E535-Q860 amino acids of hPDE5 with the R732L mutant, SG linker, AcGFP; single mutant construct” yielded an MFI ([1]; DMSO, HCT116) of 7829, an SR ([1]; Vardenafil 0.04 μM vs DMSO) of 1.88 and an MFI ([1]; Vardenafil 0.04 μM) of 14745. For the same substance, the SR ([1]; Vardenafil 0.12 μM vs DMSO) was 2.15, the MFI ([1]; Vardenafil 0.12 μM) was 16866 and the SR ([1]; Vardenafil 0.37 μM vs DMSO) was 3.17. For the same substance, the MFI ([1]; Vardenafil 0.37 μM) was 24847, the SR ([1]; Vardenafil 1.11 μM vs DMSO) was 3.94 and the MFI ([1]; Vardenafil 1.11 μM) was 30879. The SR ([1]; Vardenafil 3.33 μM vs DMSO) was 4.54, the MFI ([1]; Vardenafil 3.33 μM) was 35564 and the SR ([1]; Vardenafil 10 μM vs DMSO) was 4.99. It also gave an MFI ([1]; Vardenafil 10 μM) of 39089, an SR ([1]; Vardenafil 30 μM vs DMSO) of 9.62 and an MFI ([1]; Vardenafil 30 μM) of 75323. It also gave a destabilizing mutation coefficient ([1]; Vardenafil dose response experiment, absence of ligand, vs OT-hPDE5N-019) of 0.13, a Stabilization ratio ([2]; Sildenafil (30 μM)) of 7.78 and a Stabilization ratio ([2]; Tadalafil (100 μM)) of 8.94. The Stabilization ratio ([2]; Vardenafil (30 μM)) was 9.62, the “AcGFP protein (western blot) with Vardenafil” value [3] was “showed vardenafil dependent stabilization” and the MFI ([4]; DMSO, 24 hours, HCT116) was 3806. It also gave a destabilizing mutation coefficient ([4]; Tadalafil dose response experiment, absence of ligand, vs OT-hPDE5N-019) of 0.1, an MFI ([5]; DMSO, HCT116) of 6172 and an SR ([5]; Sildenafil 0.04 μM vs DMSO) of 0.86. For the same substance, the MFI ([5]; Sildenafil 0.04 μM) was 5299, the SR ([5]; Sildenafil 0.12 μM vs DMSO) was 1.04 and the MFI ([5]; Sildenafil 0.12 μM) was 6441. The SR ([5]; Sildenafil 0.37 μM vs DMSO) was 2.06, the MFI ([5]; Sildenafil 0.37 μM) was 12739 and the SR ([5]; Sildenafil 1.11 μM vs DMSO) was 2.58. For the same substance, the MFI ([5]; Sildenafil 1.11 μM) was 15952, the SR ([5]; Sildenafil 3.33 μM vs DMSO) was 3.82 and the MFI ([5]; Sildenafil 3.33 μM) was 23549. For the same substance, the SR ([5]; Sildenafil 10 μM vs DMSO) was 4.49, the MFI ([5]; Sildenafil 10 μM) was 27693 and the SR ([5]; Sildenafil 30 μM vs DMSO) was 7.78. The MFI ([5]; Sildenafil 30 μM) was 47992, the “destabilizing mutation co-efficient ratio” value ([5]; Sildenafil dose response experiment, absence of ligand, vs OT-hPDE5N-019) was 0.1 and the “ligand dependent stabilization (fold change in MFI over DMSO) at lower doses of Vardenafil” value [6] was “observed at lower doses i.e. 0.1 and 0.3 micro molar concentrations of Vardenafil”. For the same substance, the “stabilization ratios over time, Sildenafil 0.5 μM” value ([7]; 0-72 hours, HCT116) was “greater stabilization”, the MFI ([7]; Sildenafil 0.5 μM, 0 hours) was 2727 and the MFI ([7]; Sildenafil 0.5 μM, 4 hours) was 4127. It also gave a Stabilization ratio ([7]; Sildenafil 0.5 μM, 4 hours) of 1.51, an MFI ([7]; Sildenafil 0.5 μM, 8 hours) of 5461 and a Stabilization ratio ([7]; Sildenafil 0.5 μM, 8 hours) of 2.00. For the same substance, the MFI ([7]; Sildenafil 0.5 μM, 12 hours) was 9058, the Stabilization ratio ([7]; Sildenafil 0.5 μM, 12 hours) was 3.32 and the MFI ([7]; Sildenafil 0.5 μM, 16 hours) was 14469. The Stabilization ratio ([7]; Sildenafil 0.5 μM, 16 hours) was 5.31, the MFI ([7]; Sildenafil 0.5 μM, 20 hours) was 16142 and the Stabilization ratio ([7]; Sildenafil 0.5 μM, 20 hours) was 5.92. The MFI ([7]; Sildenafil 0.5 μM, 24 hours) was 20524, the Stabilization ratio ([7]; Sildenafil 0.5 μM, 24 hours) was 7.53 and the MFI ([7]; Sildenafil 0.5 μM, 48 hours) was 45754. It also gave a Stabilization ratio ([7]; Sildenafil 0.5 μM, 48 hours) of 16.78, an MFI ([7]; Sildenafil 0.5 μM, 72 hours) of 58786 and a Stabilization ratio ([7]; Sildenafil 0.5 μM, 72 hours) of 21.56. The MFI ([7]; Sildenafil 5 μM, 0 hours) was 2668, the MFI ([7]; Sildenafil 5 μM, 4 hours) was 4236 and the Stabilization ratio ([7]; Sildenafil 5 μM, 4 hours) was 1.59. It also gave an MFI ([7]; Sildenafil 5 μM, 8 hours) of 5672, a Stabilization ratio ([7]; Sildenafil 5 μM, 8 hours) of 2.13 and an MFI ([7]; Sildenafil 5 μM, 12 hours) of 9097. For the same substance, the Stabilization ratio ([7]; Sildenafil 5 μM, 12 hours) was 3.41, the MFI ([7]; Sildenafil 5 μM, 16 hours) was 14855 and the Stabilization ratio ([7]; Sildenafil 5 μM, 16 hours) was 5.57. It also gave an MFI ([7]; Sildenafil 5 μM, 20 hours) of 15529, a Stabilization ratio ([7]; Sildenafil 5 μM, 20 hours) of 5.82 and an MFI ([7]; Sildenafil 5 μM, 24 hours) of 20955. The Stabilization ratio ([7]; Sildenafil 5 μM, 24 hours) was 7.85, the MFI ([7]; Sildenafil 5 μM, 48 hours) was 46604 and the Stabilization ratio ([7]; Sildenafil 5 μM, 48 hours) was 17.47. The MFI ([7]; Sildenafil 5 μM, 72 hours) was 58479 and the Stabilization ratio ([7]; Sildenafil 5 μM, 72 hours) was 21.92.
